Measured values reported in the supplement of paper PMC10307832.

Experiments:
Assay in all cases: relative viability (nuclei count vs DMSO), 5 days (fraction); higher = more cells survive
[1] = compound: CC1=C(C(=NN1)C)CC2=C(C3=C(S2)N(C(=O)N(C3=O)C)CC(C)C)C(=O)N4C[C@@H](CO4)O + CC1(C)CCC(c2ccc(Cl)cc2)=C(CN2CCN(c3ccc(C(=O)NS(=O)(=O)c4ccc(N[C@H](CCN5CCOCC5)CSc5ccccc5)c(S(=O)(=O)C(F)(F)F)c4)cc3)CC2)C1 [Navitoclax] (partner 0.5 µM)
Summary of the method: (§1)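 The day after seeding in 1536-well plates, lung cancer cell lines were treated by pin tool with a single drug, or with a fixed anchor-drug dose together with five library-drug doses (not always all listed) in √10 steps. After 5 days, a combined fix-and-stain solution (final 0.05% Triton X-100, 1% formaldehyde, 1 ug/ml Hoechst) was added. Nuclei counted on 4× images gave relative viability as treated counts over vehicle counts, reported as the median of duplicate plates.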

IDH-C35 = compound: Cc1ccccc1C(C(=O)NC1CCCCC1)N(C(=O)Cn1ccnc1C)c1cccc(F)c1 [IDH-C35]
Summary of the method: (§2)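 Viability here means nuclei in treated wells divided by nuclei in vehicle wells, reported as the median across plates. Only plates with control CV below 25% and at least one doubling passed. Lung cancer cell lines in 1536-well plates were exposed to five √10-spaced library-drug doses for 5 days and counted from 4× Hoechst images in MetaXpress.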

[2] = compound: CC1=C(C(=NN1)C)CC2=C(C3=C(S2)N(C(=O)N(C3=O)C)CC(C)C)C(=O)N4C[C@@H](CO4)O
Summary of the method: as §2

[3] = compound: CC1=C(C(=NN1)C)CC2=C(C3=C(S2)N(C(=O)N(C3=O)C)CC(C)C)C(=O)N4C[C@@H](CO4)O + COc1cc2c(Oc3ccc(NC(=O)C4(C(=O)Nc5ccc(F)cc5)CC4)cc3F)ccnc2cc1OCCCN1CCOCC1 [Foretinib] (partner 0.25 µM)
Summary of the method: as §1

Cell Line | relative viability ([1]; first compound 0.0025 µM) | relative viability ([1]; first compound 0.007906 µM) | relative viability ([1]; first compound 0.025 µM) | relative viability ([1]; first compound 0.07906 µM) | relative viability ([1]; first compound 0.25 µM) | relative viability (IDH-C35; 0.08 µM) | relative viability (IDH-C35; 0.253 µM) | relative viability (IDH-C35; 0.8 µM) | relative viability (IDH-C35; 2.53 µM) | relative viability (IDH-C35; 8 µM) | relative viability ([2]; 0.0025 µM) | relative viability ([2]; 0.007906 µM) | relative viability ([2]; 0.025 µM) | relative viability ([2]; 0.07906 µM) | relative viability ([2]; 0.25 µM) | relative viability ([3]; first compound 0.0025 µM) | relative viability ([3]; first compound 0.007906 µM) | relative viability ([3]; first compound 0.025 µM) | relative viability ([3]; first compound 0.07906 µM) | relative viability ([3]; first compound 0.25 µM)
HCC-44 | 0.925 | 1.08 | 1.04 | 0.892 | 1.19 | 0.949 | 0.947 | 0.971 | 0.998 | 0.942 | 1.01 | 1.01 | 0.992 | 0.931 | 1.05 |  |  |  |  | 
HCC-827 | 0.983 | 1.08 | 1.03 | 1.04 | 1.04 | 1.06 | 0.934 | 1.04 | 0.991 | 1.02 | 0.904 | 1.08 | 1.06 | 1.04 | 1.06 | 1.02 | 1.09 | 1.01 | 1.02 | 1.02
NCI-H1623 |  |  |  |  |  | 0.969 | 0.975 | 0.95 | 1 | 1.04 | 1.02 | 0.899 | 1.01 | 1.01 | 0.955 | 0.985 | 0.788 | 0.997 | 0.805 | 0.749
NCI-H2347 | 0.86 | 0.691 | 0.828 | 0.69 | 0.771 | 1.04 | 1.06 | 0.937 | 1.02 | 0.997 | 1.11 | 1.2 | 0.949 | 0.983 | 1.04 | 1.23 | 1.13 | 0.716 | 0.831 | 0.881
PC-14 | 1.02 | 1.09 | 1.02 | 1 | 1.03 | 1.04 | 0.996 | 1 | 0.997 | 0.937 | 1.06 | 1.06 | 0.889 | 1.12 | 1.16 | 0.973 | 0.936 | 0.941 | 0.942 | 1.09
NCI-H1651 | 1.11 | 1.06 | 1.01 | 0.912 | 1.05 | 0.939 | 0.947 | 0.921 | 1 | 0.959 | 0.962 | 1.08 | 0.986 | 0.963 | 0.993 | 0.708 | 0.832 | 0.735 | 0.821 | 0.815
HARA | 1.26 | 1.2 | 1.07 | 1.1 | 1.15 | 1 | 0.949 | 0.915 | 1.03 | 0.931 | 1.03 | 1.05 | 1.01 | 1.02 | 1 | 1 | 1.01 | 0.84 | 0.656 | 0.984
NCI-H1563 |  |  |  |  |  | 0.972 | 0.974 | 1.01 | 0.981 | 0.957 | 1.06 | 1.06 | 0.97 | 1.07 | 0.973 | 0.933 | 0.969 | 0.967 | 0.933 | 0.936
ABC-1 |  |  |  |  |  | 0.953 | 0.938 | 0.91 | 1.03 | 0.992 | 0.978 | 0.921 | 0.714 | 0.994 | 0.902 | 1.02 | 1.06 | 0.955 | 1.07 | 1
SW 900 |  |  |  |  |  | 0.871 | 0.849 | 0.768 | 0.834 | 0.897 | 1.06 | 1.16 | 0.835 | 0.888 | 0.97 | 1.01 | 1.06 | 0.671 | 0.834 | 1.06
NCI-H1648 |  |  |  |  |  | 0.756 | 0.758 | 0.953 | 0.761 | 0.942 | 1.01 | 0.971 | 0.992 | 0.624 | 0.678 |  |  |  |  | 
NCI-H1792 | 0.608 | 0.572 | 0.445 | 0.509 | 0.524 | 0.832 | 0.862 | 0.974 | 0.969 | 1.13 | 0.933 | 0.773 | 0.751 | 0.744 | 0.736 |  |  |  |  | 
LCLC-103H |  |  |  |  |  | 0.968 | 0.957 | 0.933 | 1.02 | 0.913 | 1.1 | 1.06 | 1 | 0.919 | 0.973 | 0.89 | 0.672 | 0.817 | 0.84 | 1.02
NCI-H358 |  |  |  |  |  | 0.942 | 0.984 | 0.807 | 0.942 | 0.919 | 1.09 | 0.992 | 1.01 | 1.02 | 0.983 | 0.636 | 0.76 | 0.664 | 0.766 | 0.791
NCI-H2342 |  |  |  |  |  | 1.02 | 0.957 | 0.901 | 0.908 | 0.891 | 1.06 | 0.935 | 1.03 | 0.975 | 0.886 | 1.14 | 1.04 | 0.893 | 0.998 | 1.01
NCI-H522 |  |  |  |  |  | 1.02 | 1.07 | 0.931 | 0.884 | 0.99 | 0.933 | 1.12 | 0.735 | 0.64 | 0.653 |  |  |  |  | 
NCI-H650 |  |  |  |  |  | 0.894 | 1.2 | 0.981 |  | 0.962 | 0.987 | 0.91 | 0.869 | 0.919 | 1.06 | 1.07 | 0.937 | 0.938 | 0.977 | 1.08
NCI-H661 |  |  |  |  |  | 0.994 | 0.971 | 0.978 | 0.983 | 0.91 | 0.948 | 0.997 | 0.956 | 0.946 | 0.964 | 1 | 0.97 | 0.95 | 0.978 | 0.998
